For 16 compounds, IC50 and MIC results are on record in PMC10692473 (Acta Pharmaceutica Sinica. B, 2023).

Molecules are shown by their SMILES. Values after ≈ are worked out from the molar mass of the structure shown. Where only a bound is given, the exact number is not on record here.

Assay [1] has as its target S. aureus gyrase (Staphylococcus aureus, UniProt P0A0K8). The assay can be described thus: Gyrase inhibitory assay. In kind it is biochemical.
The target of assay [2] is E. coli gyrase (Escherichia coli, UniProt P0AES6). Kind of assay: Gyrase inhibitory assay. In kind it is biochemical.
Assay [3] deals with S. aureus (ATCC29213). The assay can be described thus: Antibacterial assay. Particulars: Staphylococcus aureus, ATCC29213, read-out: MIC S. aureus (ATCC29213).
Assay [4] has as its system E. coli (ATCC25922). The assay can be described thus: Antibacterial assay. The note with it: Escherichia coli, ATCC25922, read-out: MIC E. coli (ATCC25922).

S. aureus gyrase, sequence (P0A0K8 whole entry): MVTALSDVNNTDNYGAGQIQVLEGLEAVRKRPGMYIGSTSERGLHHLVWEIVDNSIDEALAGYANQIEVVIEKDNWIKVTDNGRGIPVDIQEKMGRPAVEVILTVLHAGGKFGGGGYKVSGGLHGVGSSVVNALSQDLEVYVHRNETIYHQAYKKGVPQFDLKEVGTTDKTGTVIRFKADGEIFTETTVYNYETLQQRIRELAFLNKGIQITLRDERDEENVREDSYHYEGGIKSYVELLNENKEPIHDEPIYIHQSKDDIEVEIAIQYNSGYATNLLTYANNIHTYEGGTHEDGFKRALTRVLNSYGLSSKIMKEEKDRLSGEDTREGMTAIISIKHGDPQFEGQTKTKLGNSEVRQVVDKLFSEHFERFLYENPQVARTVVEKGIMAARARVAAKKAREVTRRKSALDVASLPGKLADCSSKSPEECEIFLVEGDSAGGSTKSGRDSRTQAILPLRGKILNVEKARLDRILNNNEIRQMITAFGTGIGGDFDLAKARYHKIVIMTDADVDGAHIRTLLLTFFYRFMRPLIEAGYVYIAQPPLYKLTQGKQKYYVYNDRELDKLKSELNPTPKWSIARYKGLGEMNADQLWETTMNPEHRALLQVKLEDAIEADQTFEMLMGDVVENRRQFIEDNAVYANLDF
S. aureus gyrase, sequence (P20831 whole entry partner): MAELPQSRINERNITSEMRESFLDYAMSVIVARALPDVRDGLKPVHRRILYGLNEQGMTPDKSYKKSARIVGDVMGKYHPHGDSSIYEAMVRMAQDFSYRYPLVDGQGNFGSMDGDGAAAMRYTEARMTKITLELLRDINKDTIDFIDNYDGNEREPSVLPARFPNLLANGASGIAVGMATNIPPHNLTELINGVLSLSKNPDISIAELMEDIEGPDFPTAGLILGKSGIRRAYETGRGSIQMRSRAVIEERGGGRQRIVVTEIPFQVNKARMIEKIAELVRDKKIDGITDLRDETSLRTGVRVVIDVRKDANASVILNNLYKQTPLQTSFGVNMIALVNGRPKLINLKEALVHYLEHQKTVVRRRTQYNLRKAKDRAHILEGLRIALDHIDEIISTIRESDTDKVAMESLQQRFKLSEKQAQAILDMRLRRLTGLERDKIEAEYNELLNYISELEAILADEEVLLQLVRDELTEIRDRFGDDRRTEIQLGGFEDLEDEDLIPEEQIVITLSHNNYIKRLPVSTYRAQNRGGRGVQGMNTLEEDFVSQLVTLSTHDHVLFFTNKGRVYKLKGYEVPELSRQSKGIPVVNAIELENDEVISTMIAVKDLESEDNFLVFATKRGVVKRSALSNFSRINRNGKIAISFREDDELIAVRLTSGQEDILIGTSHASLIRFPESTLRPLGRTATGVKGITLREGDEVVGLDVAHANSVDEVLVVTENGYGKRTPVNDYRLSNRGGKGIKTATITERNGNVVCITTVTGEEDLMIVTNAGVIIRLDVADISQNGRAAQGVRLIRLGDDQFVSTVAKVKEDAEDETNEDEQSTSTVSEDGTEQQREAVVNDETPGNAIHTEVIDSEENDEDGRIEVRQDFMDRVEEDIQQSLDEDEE

The term IC50 denotes the concentration at which inhibition is half-maximal. For orientation: MIC means the smallest concentration in the dilution series that meets the test's criterion for growth inhibition. Take `COC(=O)c1cnc(N2CC[C@@H](NC(=O)c3[nH]c(C)c(Cl)c3Cl)[C@@H](OC)C2)s1` [Compound 9, Methyl 2-((3S,4R)-4-(3,4-dichloro-5-methyl-1H-pyrrole-2-carboxamido)-3-methoxypiperidin-1-yl)thiazole-5-carboxylate]: the IC50 in assay [1] is 1450 ± 111 nM; in assay [2] it was over 10000 nM. Moreover, the MIC is 0.125 µg/mL (≈ 0.279 µM) in assay [3] and over 128 µg/mL in assay [4].
For the compound `CCOC(=O)c1nnc(N2CC[C@@H](NC(=O)c3[nH]c(C)c(Cl)c3Cl)[C@@H](OC)C2)s1` [Compound 10, Ethyl 5-((3S,4R)-4-(3,4-dichloro-5-methyl-1H-pyrrole-2-carboxamido)-3-methoxy-piperidin-1-yl)-1,3,4-thiadiazole-2-carboxylate], the IC50 is 137 ± 13 nM in assay [1] and 6870 ± 1220 nM in assay [2]. Further, the results for the MIC in assay [3] and in assay [4] were 0.125 µg/mL (≈ 0.27 µM) and 16 µg/mL (≈ 34.6 µM), respectively.
Taken in the same sequence, the figures for `COC(=O)c1ccc(N2CC[C@@H](NC(=O)c3[nH]c(C)c(Cl)c3Cl)[C@@H](OC)C2)nc1` [Compound 11, Methyl 6-((3S,4R)-4-(3,4-dichloro-5-methyl-1H-pyrrole-2-carboxamido)-3-methoxy-piperidin-1-yl)nicotinate] were 3350 ± 154 nM, over 10000 nM, 1 µg/mL (≈ 2.27 µM) and over 128 µg/mL.
Turning to `CCOC(=O)c1cnc(N2CC[C@@H](NC(=O)c3[nH]c(C)c(Cl)c3Cl)[C@@H](OC)C2)nc1` [Compound 12, Ethyl 2-((3S,4R)-4-(3,4-dichloro-5-methyl-1H-pyrrole-2-carboxamido)-3-methoxy-piperidin-1-yl)pyrimidine-5-carboxylate], the IC50 was 4870 ± 20 nM in assay [1] and over 10000 nM in assay [2]. Also, the minimal inhibitory concentration (MIC) in assay [3] is 0.125 µg/mL (≈ 0.274 µM); in assay [4] it was over 128 µg/mL.
The like results for `COC(=O)c1cnc(N2CC[C@@H](NC(=O)c3[nH]c(C)c(Cl)c3Cl)[C@@H](OC)C2)cn1` [Compound 13, Methyl-5-((3S,4R)-4-(3,4-dichloro-5-methyl-1H-pyrrole-2-carboxamido)-3-methoxypiperidin-1-yl)pyrazine-2-carboxylate] were, in that order, over 10000 nM, over 10000 nM, over 128 µg/mL and over 128 µg/mL.
The like results for `CCOC(=O)c1nnc(N2CC[C@@H](NC(=O)c3[nH]c(C)c(Cl)c3Cl)[C@@H](OC)C2)o1` [Compound 16, Ethyl-5-((3S,4R)-4-(3,4-dichloro-5-methyl-1H-pyrrole-2-carboxamido)-3-methoxypiperidin-1-yl)-1,3,4-oxadiazole-2-carboxylate] were, in that order, 2340 nM, over 10000 nM, 0.5 µg/mL (≈ 1.12 µM) and 128 µg/mL (≈ 287 µM).
Taken in the same sequence, the figures for `CO[C@H]1CN(c2ccc(F)nn2)CC[C@H]1NC(=O)c1[nH]c(C)c(Cl)c1Cl` [Compound 17, 3,4-Dichloro-N-((3S,4R)-1-(6-fluoropyridazin-3-yl)-3-methoxypiperidin-4-yl)-5-methyl-1H-pyrrole-2-carboxamide] were 84 ± 37 nM, 8210 ± 1210 nM, 0.25 µg/mL (≈ 0.621 µM) and 16 µg/mL (≈ 39.8 µM).
Consider `CO[C@H]1CN(c2ccc(Br)nn2)CC[C@H]1NC(=O)c1[nH]c(C)c(Cl)c1Cl` [Compound 18, N-((3S,4R)-1-(6-Bromopyridazin-3-yl)-3-methoxypiperidin-4-yl)-3,4-dichloro-5-methyl-1H-pyrrole-2-carboxamide], for which the IC50 came to 130 ± 17 nM in assay [1] and 7420 ± 1010 nM in assay [2]. The values for the MIC in assay [3] and in assay [4] were 0.03 µg/mL (≈ 0.0648 µM) and 4 µg/mL (≈ 8.64 µM), respectively.
The like results for `CO[C@H]1CN(c2ccc(C(F)(F)F)nn2)CC[C@H]1NC(=O)c1[nH]c(C)c(Cl)c1Cl` [Compound 19, 3,4-Dichloro-N-((3S,4R)-3-methoxy-1-(6-(trifluoromethyl)pyridazin-3-yl)piperidin-4-yl)-5-methyl-1H-pyrrole-2-carboxamide] were, in that order, 120 ± 47 nM, 9310 ± 923 nM, 0.03 µg/mL (≈ 0.0663 µM) and 16 µg/mL (≈ 35.4 µM).
Taken in the same sequence, the figures for `CO[C@H]1CN(c2ccc(C#N)nn2)CC[C@H]1NC(=O)c1[nH]c(C)c(Cl)c1Cl` [Compound 20, 3,4-Dichloro-N-((3S,4R)-1-(6-cyanopyridazin-3-yl)-3-methoxypiperidin-4-yl)-5-methyl-1H-pyrrole-2-carboxamide] were 701 ± 248 nM, over 10000 nM, 0.06 µg/mL (≈ 0.147 µM) and over 128 µg/mL.
Taken in the same sequence, the figures for `CO[C@H]1CN(c2ccc(C(C)=O)nn2)CC[C@H]1NC(=O)c1[nH]c(C)c(Cl)c1Cl` [Compound 21, N-((3S,4R)-1-(6-Acetylpyridazin-3-yl)-3-methoxypiperidin-4-yl)-3,4-dichloro-5-methyl-1H-pyrrole-2-carboxamide] were 825 ± 303 nM, over 10000 nM, 0.06 µg/mL (≈ 0.141 µM) and over 128 µg/mL.
Regarding `CO/N=C(\C)c1ccc(N2CC[C@@H](NC(=O)c3[nH]c(C)c(Cl)c3Cl)[C@@H](OC)C2)nn1` [Compound 24, 3,4-Dichloro-N-((3S,4R)-3-methoxy-1-(6-((E)-1-(methoxyimino)ethyl)pyridazin-3-yl)piperidin-4-yl)-5-methyl-1H-pyrrole-2-carboxamide], the IC50 in assay [1] is 2070 ± 568 nM; in assay [2], over 10000 nM. Besides, the figures for the MIC in assay [3] and in assay [4] were 0.03 µg/mL (≈ 0.0659 µM) and over 128 µg/mL, respectively.
The like results for `CO[C@H]1CN(c2ccc(/C(C)=N/OCC(=O)O)nn2)CC[C@H]1NC(=O)c1[nH]c(C)c(Cl)c1Cl` [Compound 25, 2-((((E)-1-(6-((3S,4R)-4-(3,4-Dichloro-5-methyl-1H-pyrrole-2-carboxamido)-3-methoxypiperidin-1-yl)pyridazine-3-yl)ethylidene)amino)oxy)acetic acid] were, in that order, 172 ± 56 nM, over 10000 nM, 0.25 µg/mL (≈ 0.501 µM) and over 128 µg/mL.
Take `CO[C@H]1CN(c2ccc(CO)nn2)CC[C@H]1NC(=O)c1[nH]c(C)c(Cl)c1Cl` [Compound 27, 3,4-Dichloro-N-((3S,4R)-1-(6-(hydroxymethyl)pyridazin-3-yl)-3-methoxypiperidin-4-yl)-5-methyl-1H-pyrrole-2-carboxamide]: the results for the 50% inhibitory concentration (IC50) in assay [1] and in assay [2] were 94 ± 40 nM and 5110 ± 545 nM, respectively. The minimum inhibitory concentration (MIC) in assay [3] was determined as 0.03 µg/mL (≈ 0.0724 µM); in assay [4], 4 µg/mL (≈ 9.66 µM).
Turning to `CNC(=O)c1ccc(N2CC[C@@H](NC(=O)c3[nH]c(C)c(Cl)c3Cl)[C@@H](OC)C2)nn1` [Compound 30, 6-((3S,4R)-4-(3,4-Dichloro-5-methyl-1H-pyrrole-2-carboxamido)-3-methoxypiperidin-1-yl)-N-methylpyridazine-3-carboxamide], the IC50 in assay [1] was 696 ± 56 nM; in assay [2] it was over 10000 nM. For the same compound, the figures for the MIC in assay [3] and in assay [4] were 0.125 µg/mL (≈ 0.283 µM) and 16 µg/mL (≈ 36.3 µM), respectively.
Take `CCNC(=O)c1ccc(N2CC[C@@H](NC(=O)c3[nH]c(C)c(Cl)c3Cl)[C@@H](OC)C2)nn1` [Compound 31, 6-((3S,4R)-4-(3,4-Dichloro-5-methyl-1H-pyrrole-2-carboxamido)-3-methoxypiperidin-1-yl)-N-ethylpyridazine-3-carboxamide]: the IC50 in assay [1] was 576 ± 45 nM; in assay [2], over 10000 nM. In addition, the MIC in assay [3] is 0.125 µg/mL (≈ 0.275 µM); in assay [4], over 128 µg/mL.
